These results are taken from publication PMC10373420, “A high-throughput screening system for SARS-CoV-2 entry inhibition, syncytia formation and cell toxicity” (Biological Procedures Online, 2023).

Entries after “also recorded” stand apart in the source; their conditions may differ. Counter-ions that a name gives are not always drawn. Like-named read-outs stand apart in the source and are kept apart here. Numbered stars: 1 amine (or outer) side, 2 acyl side, 3 side chain; on linkers, the order of the positions; unused ones are H or OH. Bridge positions count the residues as written; N and C are the ends. Square brackets hold non-standard residues; d marks the D form. Peptide text beside a SMILES is read from it. I, II: the chains in the order shown. Actinocin(9to1) = Cc1c2oc3c(C)ccc(C(=O)[*:1])c3nc-2c(C(=O)[*:2])c(N)c1=O; NMeV = CN[C@H](C(=O)O)C(C)C; Sar = CNCC(=O)O

Data set [1] relates to VSV-eGFP-SARS-CoV-2. Briefly: microbe, parasite or virus in culture. The data set is classed as cell-based. The conditions noted are these: for inhibition at 1 µM: read-out: inhibition of VSV-eGFP-SARS-CoV-2 infection, 1 μM; for inhibition at 5 µM: read-out: inhibition of VSV-eGFP-SARS-CoV-2 infection, 5 μM; for inhibition at 10 µM: read-out: inhibition of VSV-eGFP-SARS-CoV-2 infection, 10 μM; for IC50: read-out: IC50 against VSV-eGFP-SARS-CoV-2 infection.

In data set [2] the test system is VSV-eGFP-SARS-CoV-2. It counts as cell-based. The conditions noted are these: 1 μM.
The test system of data set [3] is ACE2-Spike dependent syncytia formation. It counts as cell-based, human. The conditions noted are these: IC50 concentration; for initiation of pseudoviral infection: control 7 hpi; for initiation of syncytia formation: imaging up to 24 hpi, control 12 hpi.
For a further data set, the system named is rVSV-G-GFP. It counts as cell-based, vesicular stomatitis virus (VSV).
Data set [4] relates to SiHa ACE2 Cerulean H2B mCherry cells.
Where [5] appears, read: Severe acute respiratory syndrome coronavirus 2, SiHa.

As a reminder, the inhibition is the relative decrease from the control value, in per cent. Usually IC50 stands for the concentration that gives 50% inhibition.

On to `CC(=O)O[C@H]1C[C@H](O[C@H]2[C@@H](O)C[C@H](O[C@H]3[C@@H](O)C[C@H](O[C@H]4CC[C@@]5(C)[C@H](CC[C@@H]6[C@@H]5C[C@@H](O)[C@]5(C)[C@@H](C7=CC(=O)OC7)CC[C@]65O)C4)O[C@@H]3C)O[C@@H]2C)O[C@H](C)[C@H]1O[C@@H]1O[C@H](CO)[C@@H](O)[C@H](O)[C@H]1O` [Allocor], for which, in the data set on VSV-eGFP-SARS-CoV-2 [1] (setting [5]), the inhibition at 1 µM came out at 49%, the inhibition at 5 µM came out at 89% and the inhibition at 10 µM came to 92%.
Regarding `CC[C@](C)(O)C(=O)O[C@H]1C(=O)O[C@@H]2C[C@H]3C(C)=C[C@H](O)[C@@H](O)[C@]3(C)[C@H]3[C@]4(O)OC[C@]32[C@@H]1[C@@H](C)[C@H]4O` [Glaucarubin], in the data set on VSV-eGFP-SARS-CoV-2 [1] (setting [5]), the inhibition at 1 µM was -7%, the inhibition at 5 µM is -1% and the inhibition at 10 µM turned out to be 33%.
The like results for `CC(=O)O[C@H]1C[C@H](O[C@H]2[C@@H](O)C[C@H](O[C@H]3[C@@H](O)C[C@H](OC4CC[C@@]5(C)[C@H](CC[C@@H]6[C@@H]5CC[C@]5(C)[C@@H](C7=CC(=O)OC7)CC[C@]65O)C4)O[C@@H]3C)O[C@@H]2C)O[C@H](C)[C@H]1O[C@@H]1O[C@H](CO)[C@@H](O)[C@H](O)[C@H]1O` (some centres unmarked) [Lanatoside A] were, in that order, 81%, 97% and 98%.
For `CCCCCC1=C/C(=C/c2[nH]c(-c3ccc[nH]3)cc2OC)N=C1C` [Prodigiosin], in that order: 86%, 98% and 100%.
For `CC1=C2C(=CC(C)(C)[C@@H]2O)C(=O)[C@](C)(O)C12CC2` [Illudin M], in that order: 31%, 54% and 73%.
Consider `CSC[S@+]([O-])C[C@H](CO)NC(=O)/C=C/c1c(C)[nH]c(=O)[nH]c1=O` [Sparsomycin], for which, in the data set on VSV-eGFP-SARS-CoV-2 [1] (setting [5]), the inhibition at 1 µM is -2%, the inhibition at 5 µM amounted to 80% and the inhibition at 10 µM was 94%.
`CO[C@H]1/C=C\C=C(/C)C(=O)NC2=CC(=O)C(N)=C(C[C@@H](C)C[C@H](OC)[C@H](O)[C@@H](C)/C=C(\C)[C@@H]1OC(N)=O)C2=O` [17-Aminodemethoxygeldanamycin]: in the data set with VSV-eGFP-SARS-CoV-2 [2], the “inhibition of VSV-eGFP-SARS-CoV-2 infection after pre-treatment of cells” value was 50% and the “inhibitory activity after preincubation of cells with natural product (in words)” value is given as “having inhibitory activity; also recorded: moderate level of viral entry inhibition”. Besides, the IC50 with VSV-eGFP-SARS-CoV-2 [1] worked out at 560 nM. Besides, in data set [3], the “initiation of pseudoviral infection” value was found to be 8 hpi and the “initiation of syncytia formation” value came to 12 hpi. The “rVSV-G-GFP infection inhibition (in words)” value in the data set on rVSV-G-GFP is listed as “moderate inhibition”.
Turning to `COc1cccc2c1C(=O)c1c(O)c3c(c(O)c1C2=O)C[C@@](O)(C(C)=O)C[C@@H]3O[C@H]1C[C@H](N)[C@H](O)[C@H](C)O1` [Daunorubicin hydrochloride, reference compound], in the data set on VSV-eGFP-SARS-CoV-2 [1] (setting [5]), the inhibition at 1 µM is -16%, the inhibition at 5 µM was 40% and the inhibition at 10 µM stood at 41%.
As to `COC1=C(N)C(=O)c2nc(-c3nc(C(=O)O)c(C)c(-c4ccc(OC)c(OC)c4O)c3N)ccc2C1=O` [Streptonigrin], in data set [4], the “toxicity at IC50 dose” value is given as “minimum toxicity”. In the data set with VSV-eGFP-SARS-CoV-2 [1] (setting [5]), the IC50 stood at 380 nM, the inhibition at 5 µM worked out at 100% and the inhibition at 10 µM stood at 100%. In data set [3], the “initiation of pseudoviral infection” value is reported as 8 hpi and the “initiation of syncytia formation” value was 12 hpi. In addition, in the data set on rVSV-G-GFP, the “rVSV-G-GFP infection inhibition (in words)” value was “could inhibit the VSVG infection; also recorded: rVSV-G-GFP inhibition”.
For `C[C@H]1CCC/C=C/[C@@H]2C[C@H](O)C[C@H]2[C@H](O)/C=C/C(=O)O1` [Brefeldin A], in the data set on VSV-eGFP-SARS-CoV-2 [1] (setting [5]), the inhibition at 1 µM amounted to 66%, the inhibition at 5 µM is 82% and the inhibition at 10 µM stood at 86%.
For the compound `CC[C@H](C)[C@H]1NC(=O)[C@@H](NC(=O)[C@@H](CC(C)C)N(C)C(=O)[C@@H]2CCCN2C(=O)C(C)O)[C@@H](C)OC(=O)[C@H](Cc2ccc(OC)cc2)N(C)C(=O)[C@@H]2CCCN2C(=O)[C@H](CC(C)C)NC(=O)[C@@H](C)C(=O)[C@H](C(C)C)OC(=O)C[C@@H]1O` (some centres unmarked) [Didemnin B], the “inhibitory activity after preincubation of cells with natural product (in words)” value with VSV-eGFP-SARS-CoV-2 [2] is “having inhibitory activity; also recorded: could inhibit viral infection”. Besides, in data set [4], the “cellular toxicity (H2B mCherry nuclear condensation)” value was “exhibited toxicity at higher doses” and the “toxicity at IC50 dose” value is on record as “minimum toxicity”. Besides, in the data set with VSV-eGFP-SARS-CoV-2 [1] (setting [5]), the IC50 stood at 190 nM, the inhibition at 5 µM is 100% and the inhibition at 10 µM was 100%. For the same compound, in data set [3], the “initiation of pseudoviral infection” value is 8 hpi and the “initiation of syncytia formation” value is recorded as “no syncytia was observed”. The “initiation of syncytia formation” value in data set [3] (listed as Didemin B) is “inhibits syncytia formation”. Further, the “rVSV-G-GFP infection inhibition (in words)” value in the data set on rVSV-G-GFP is reported as “could inhibit the VSVG infection; also recorded: rVSV-G-GFP inhibition”.
For the compound `COc1ccc(/C=C/C(=O)c2ccccc2)cc1` [4-Methoxychalcone, reference compound], in the data set with VSV-eGFP-SARS-CoV-2 [1] (setting [5]), the inhibition at 1 µM was -11%, the inhibition at 5 µM is -7% and the inhibition at 10 µM worked out at 26%.
Turning to `C[C@@H]1O[C@@H](O[C@@H]2C=C3CC[C@@H]4[C@H](CC[C@]5(C)[C@@H](c6ccc(=O)oc6)CC[C@]45O)[C@@]3(C)CC2)[C@H](O)[C@H](O)[C@H]1O[C@@H]1O[C@H](CO)[C@@H](O)[C@H](O)[C@H]1O` [Scillaren A], the IC50 in the data set on VSV-eGFP-SARS-CoV-2 [1] amounted to 410 nM. Also, in data set [3], the “initiation of pseudoviral infection” value is on record as 8 hpi and the “initiation of syncytia formation” value came to 22 hpi. The “rVSV-G-GFP infection inhibition (in words)” value in the data set on rVSV-G-GFP is given as “moderate level of inhibition”.
`CC[C@]1(O)C[C@H]2CN(CCc3c([nH]c4ccccc34)[C@@](C(=O)OC)(c3cc4c(cc3OC)N(C=O)[C@H]3[C@@](O)(C(=O)OC)[C@H](OC(C)=O)[C@]5(CC)C=CCN6CC[C@]43[C@@H]65)C2)C1` [Vincristine sulfate, reference compound]: in the data set with VSV-eGFP-SARS-CoV-2 [1] (setting [5]), the inhibition at 1 µM amounted to 32%, the inhibition at 5 µM came to 38% and the inhibition at 10 µM turned out to be 39%.
For `C[C@H](N)C(=O)N[C@@H]1[C@H]2C(=C(O)C[C@@H](O)[C@@H]2O)C(=O)O[C@]1(C)C(Cl)Cl` [Bactobolin], in that order: 56%, 99% and 100%.
On to `CC(=O)O[C@@]1(C)C[C@@H]([C@H](O)CC2CC(=O)NC(=O)C2)C(=O)[C@@H](C)C1` [Acetoxycycloheximide], for which, in the data set on VSV-eGFP-SARS-CoV-2 [1] (setting [5]), the IC50 came out at 640 nM, the inhibition at 5 µM came out at 100% and the inhibition at 10 µM was found to be 100%. Also, in data set [3], the “initiation of pseudoviral infection” value was determined as 10 hpi and the “initiation of syncytia formation” value is listed as 21 hpi. Further, the “rVSV-G-GFP infection inhibition (in words)” value with rVSV-G-GFP is recorded as “moderate level of inhibition”.
`C[C@@H]1O[C@@H](O[C@@H]2C=C3CC[C@@H]4[C@H](CC[C@]5(C)[C@@H](c6ccc(=O)oc6)CC[C@]45O)[C@@]3(C)CC2)[C@H](O)[C@H](O)[C@H]1O` [Proscillaridin, reference compound]: in the data set on VSV-eGFP-SARS-CoV-2 [1] (setting [5]), the IC50 was found to be 220 nM, the inhibition at 5 µM is 98% and the inhibition at 10 µM came to 99%. Also, in data set [3], the “initiation of pseudoviral infection” value came out at 8 hpi and the “initiation of syncytia formation” value was determined as 16 hpi. In addition, the “rVSV-G-GFP infection inhibition (in words)” value in the data set on rVSV-G-GFP was “moderate inhibition”.
Take `Cc1c2oc3c(C)ccc(C(=O)N[C@@H]4C(=O)N[C@H](C(C)C)C(=O)N5CCC[C@H]5C(=O)N(C)CC(=O)N(C)[C@@H](C(C)C)C(=O)O[C@@H]4C)c3nc-2c(C(=O)N[C@@H]2C(=O)N[C@H](C(C)C)C(=O)N3CCC[C@H]3C(=O)N(C)CC(=O)N(C)[C@@H](C(C)C)C(=O)O[C@@H]2C)c(N)c1=O` [Dactinomycin, reference compound] (I: T[dV]P[Sar][NMeV] / II: T[dV]P[Sar][NMeV]; ester I:1-I:C, II:1-II:C; linker I:N-II:N via Actinocin(9to1)): in the data set with VSV-eGFP-SARS-CoV-2 [1] (setting [5]), the inhibition at 1 µM stood at 39%, the inhibition at 5 µM is 56% and the inhibition at 10 µM stood at 58%.
Turning to Casirivimab, in the data set on VSV-eGFP-SARS-CoV-2 [1], the “inhibition of VSV-eGFP-SARS-CoV-2 infection (in words)” value is listed as “inhibition of VSV-eGFP-SARS-CoV-2 infection” and the IC50 was 0.045 nM.
